# Measurements as given in PMC4791274, “Cerdulatinib, a novel dual SYK/JAK kinase inhibitor, has broad anti-tumor activity in both ABC and GCB types of diffuse large B cell lymphoma” (Oncotarget, 2015).
# Tests used:
# [1] = system: panel of DLBCL cell lines; experiment: MTT assay, whole panel; type: cell-based; details: all eleven DLBCL cell lines, 72 h
# Description: (§1) DLBCL cell lines were treated with various concentrations of cerdulatinib for up to 72 h. The metabolic activities of cells were determined with MTT assay according to manufacturer's instruction (Roche Applied Science, Indianapolis, IN) at 72 h time point. IC50 was calculated using the Sigma Plot generated with GraphPad Prism 6 software (GraphPad, La Jolla, CA). Cell growth was measured at every 24 h counting live cells with flow cytometry as previously described. Cells were collected every 24 h and cell viability was determined by the PE Annexin V Apoptosis Detection Kit I (BD Biosciences).
# ABC DLBCL cell lines = experiment: MTT assay, ABC cell lines; type: cell-based; details: ABC cell lines with relatively higher total and phosphorylated STAT3, 72 h
# Description: as §1
# [2] = system: phosphorylation of STAT3 at Y705; experiment: immunoblotting of p-STAT3 in IL-6/IL-10 stimulated DLBCL cell lines; type: cell-based; details: 3 μM, IL-6 and IL-10 stimulated ABC and GCB cell lines
# Description: (§2) Immunoblotting were performed as previously described. Antibodies including total STAT3, SYK, PLCγ2, AKT, ERK1/2, PARP, caspase 3, and phosphorylated STAT3 (S727), STAT3 (Y705), SYK (Y525/526), PLCγ2 (Y759), PLCγ2 (Y1217), AKT (S473), ERK1/2 (Y204) and RB (S807/811) were purchased from Cell Signaling (Danvers, MA). Cyclin E antibody was purchased from Santa Cruz Biotechnology (Dallas, TX), and β-actin antibody was purchased from Sigma-Aldrich (St Louis, MO). Antibodies used in phosphoflow assay, including phosphorylated STAT3 (S727), SYK (Y525/526), PLCγ2 (Y759), AKT (S473), and ERK1/2 (Y204) were purchased from BD Biosciences (San Jose, CA).
# p-SYK = experiment: immunoblotting of p-SYK in BCR-stimulated DLBCL cell lines; type: cell-based; details: 3 μM, anti IgM/IgG stimulated, all five cell lines
# Description: as §2
# p-STAT3, p-AKT and p-ERK = experiment: phospho-flow assay in anti-BCR stimulated primary DLBCL cells; type: cell-based, human; details: 0.5 μM or 1 μM, 6 h, then IgM/IgG 15 min, six primary DLBCL samples
# Description: GCB cell lines OCI-LY1, OCI-LY4, OCI-LY8, OCI-LY18, SUDHL6 and VAL were cultured in Iscove's Modified Dulbecco's Medium (IMDM) supplemented with 20% Fetal Bovine Serum (FBS) and 100 μg/mL penicillin/streptomycin. ABC cell lines SUDHL2 and HBL1 were cultured in RPMI1640 supplemented with 20% FBS and 100 μg/mL penicillin/streptomycin. OCI-LY3 cells were grown in RPMI1640 supplemented with 20% FBS, 100 μg/ml penicillin/streptomycin and HEPES. ABC cell lines OCI-LY10 was cultured in Iscove's Modified Dulbecco's Medium (IMDM) supplemented with 20% human serum and 100 μg/mL penicillin/streptomycin. ABC cell line U2932 was cultured in high glucose RPMI1640 supplemented with 20% FBS, 100 μg/ml penicillin/streptomycin. All cells were maintained in a humidified 37°C/5% CO2 incubator. Frozen primary DLBCL cells were obtained from the tumor bank of the Department of Pathology at Weill Cornell Medical College after Institutional Review Board review and approval. All primary cells were thawed as previously described and cultured in above conditions at 37°C for 6 h in the presence or absence of cerdulatinib followed by BCR stimulations with 5 μg/mL of IgM and IgG. The clinical characteristics of these patients are listed in the Supplemental Table 1. Cerdulatinib was kindly provided by Portola Pharmaceuticals Inc. (South San Francisco, CA) and stored as 10 mM stock at −20°C. […]
# [3] = system: BCR-stimulated DLBCL cells; experiment: BrdU S-phase analysis under BCR stimulation; type: cell-based; details: 3 μM, 48 h, anti-IgM and anti-IgG stimulation
# Description: DLBCL cells were treated with various concentrations of cerdulatinib for 48 h. Cells were incubated with 10 μM BrdU (BD Biosciences, San Jose, CA) at 37°C for 2 h, and stained with PE conjugated anti-BrdU antibody (BD Biosciences) according to the supplier's manual. The percentage of cell cycle distribution was analyzed with FlowJo (Tree Star Inc. Ashland, OR).
# TYK2 = details: biochemical assay; cited from earlier work
# MST1 = details: biochemical assay; cited from earlier work
# ARK5 = details: biochemical assay; cited from earlier work
# MLK1 = details: biochemical assay; cited from earlier work
# JAK3 = details: biochemical assay; cited from earlier work
# MARK1 = details: biochemical assay; cited from earlier work
# JAK1 = details: biochemical assay; cited from earlier work
# PAR1B-α = details: biochemical assay; cited from earlier work
# TSSK = details: biochemical assay; cited from earlier work
# MST2 = details: biochemical assay; cited from earlier work
# GCK = details: biochemical assay; cited from earlier work
# JNK3 = details: biochemical assay; cited from earlier work
# SYK = details: biochemical assay; cited from earlier work
# CHK1 = details: biochemical assay; cited from earlier work
# FLT3 = details: biochemical assay; cited from earlier work
# 24 kinases = details: biochemical assays, Table 1; read-out: IC50's against 24 kinases; cited from earlier work
# LCK = details: cited from earlier work
# LYN = details: cited from earlier work
# ZAP70 = details: cited from earlier work
# [4] = system: rat model of autoimmune disease; details: cited from earlier work
# [5] = system: primary CLL cells with the BTK C481S mutation; details: cited from earlier work
structure (smiles),measurement,setting,value
CCS(=O)(=O)N1CCN(c2ccc(Nc3ncc(C(N)=O)c(NC4CC4)n3)cc2)CC1 [cerdulatinib],IC50,[1],≤ 2 µM
same,IC50,ABC DLBCL cell lines,0.29 to 1.8 µM
same,phosphorylation of STAT3 at Y705,[2],completely blocked
same,p-SYK level,p-SYK,significant reduction
same,"p-STAT3, p-AKT and p-ERK levels","p-STAT3, p-AKT and p-ERK",marked and simultaneous down-regulation
same,S-phase of BCR-stimulated tumor cells,[3],sensitive
same,IC50,TYK2,0.5 nM
same,IC50,MST1,4 nM
same,IC50,ARK5,4 nM
same,IC50,MLK1,5 nM
same,IC50,JAK3,8 nM
same,IC50,MARK1,10 nM
same,IC50,JAK1,12 nM
same,IC50,PAR1B-α,13 nM
same,IC50,TSSK,14 nM
same,IC50,MST2,15 nM
same,IC50,GCK,18 nM
same,IC50,JNK3,18 nM
same,IC50,SYK,32 nM
same,IC50,CHK1,42 nM
same,IC50,FLT3,90 nM
same,IC50,24 kinases,< 0.2 µM
same,cellular activity against LCK,LCK,lacking cellular activity
same,cellular activity against LYN,LYN,lacking cellular activity
same,cellular activity against ZAP70,ZAP70,lacking cellular activity
same,inflammation,[4],reduces inflammation
same,proliferation of ibrutinib-resistant cells,[5],completely blocking
